The term IC50 denotes the concentration needed to halve the response being measured. Broadly, the Ki is a measure of affinity in units of concentration, obtained from inhibition or displacement.

The source of these data is ChEMBL document CHEMBL1909046, “DrugMatrix in vitro pharmacology data”.

The target of experiment [1] is T1, Alpha-2A adrenergic receptor (Homo sapiens, UniProt P08913). Also: in other assays of this panel Not Active means under 50% inhibition at 10 µM.
T1 sequence (P08913 whole entry): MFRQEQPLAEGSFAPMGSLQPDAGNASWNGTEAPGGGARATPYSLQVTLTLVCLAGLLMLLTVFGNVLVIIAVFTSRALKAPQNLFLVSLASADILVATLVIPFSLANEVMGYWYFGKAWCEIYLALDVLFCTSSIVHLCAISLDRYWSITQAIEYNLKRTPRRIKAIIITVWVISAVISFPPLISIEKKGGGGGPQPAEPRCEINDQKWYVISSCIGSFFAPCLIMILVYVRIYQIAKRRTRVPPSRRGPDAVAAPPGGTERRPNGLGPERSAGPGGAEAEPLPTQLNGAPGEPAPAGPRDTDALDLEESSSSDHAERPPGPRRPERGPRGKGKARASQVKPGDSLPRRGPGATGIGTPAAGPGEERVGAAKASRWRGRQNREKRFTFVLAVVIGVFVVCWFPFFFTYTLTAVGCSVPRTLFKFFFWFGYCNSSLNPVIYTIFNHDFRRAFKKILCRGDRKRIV
Type of experiment: cell membranes, Sf9, Membrane. Particulars: sf9.

Experiment [2] has as its target Acetylcholinesterase (Homo sapiens, UniProt P22303). The experiment can be described thus: DRUGMATRIX: Acetylcholinesterase enzyme inhibition (substrate: acetylthiocholine). Type of experiment: cell-based, HEK293. Particulars: hek293; Not Active = under 50% inhibition at 10 µM.
For experiment [3], the target named is Nitric oxide synthase 1 (Rattus norvegicus, UniProt P29476). Type of experiment: tissue-based, Cerebellum. Also: in other assays of this panel Not Active means under 50% inhibition at 10 µM.
Experiment [4] has as its target Substance-P receptor (Homo sapiens, UniProt P25103). Type of experiment: cell membranes, CHO, Membrane. Particulars: cho. Also: in other assays of this panel Not Active means under 50% inhibition at 10 µM.
Experiment [5] concerns the target T2, Muscarinic acetylcholine receptor M5 (Homo sapiens, UniProt P08912). Also: in other assays of this panel Not Active means under 50% inhibition at 10 µM.
T2 sequence (P08912 whole entry): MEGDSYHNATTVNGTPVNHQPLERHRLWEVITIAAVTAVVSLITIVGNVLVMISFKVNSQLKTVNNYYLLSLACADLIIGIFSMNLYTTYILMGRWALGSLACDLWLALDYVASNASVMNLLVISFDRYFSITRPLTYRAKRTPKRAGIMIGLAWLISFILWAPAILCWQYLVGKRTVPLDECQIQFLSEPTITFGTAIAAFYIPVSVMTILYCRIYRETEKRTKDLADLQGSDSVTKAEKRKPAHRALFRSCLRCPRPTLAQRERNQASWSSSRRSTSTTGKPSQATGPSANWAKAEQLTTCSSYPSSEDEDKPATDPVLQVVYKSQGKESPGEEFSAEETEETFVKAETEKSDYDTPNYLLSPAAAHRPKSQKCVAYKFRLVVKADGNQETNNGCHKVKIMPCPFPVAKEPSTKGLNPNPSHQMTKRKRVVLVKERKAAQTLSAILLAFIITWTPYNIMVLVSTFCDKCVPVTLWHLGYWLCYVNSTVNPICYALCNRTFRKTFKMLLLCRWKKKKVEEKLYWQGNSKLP
Type of experiment: cell membranes, CHO-K1, Membrane. Particulars: cho-k1.

Experiment [6] has as its target T3, Endothelin-1 receptor (Homo sapiens, UniProt P25101). Also: in other assays of this panel Not Active means under 50% inhibition at 10 µM.
T3 sequence (P25101 whole entry): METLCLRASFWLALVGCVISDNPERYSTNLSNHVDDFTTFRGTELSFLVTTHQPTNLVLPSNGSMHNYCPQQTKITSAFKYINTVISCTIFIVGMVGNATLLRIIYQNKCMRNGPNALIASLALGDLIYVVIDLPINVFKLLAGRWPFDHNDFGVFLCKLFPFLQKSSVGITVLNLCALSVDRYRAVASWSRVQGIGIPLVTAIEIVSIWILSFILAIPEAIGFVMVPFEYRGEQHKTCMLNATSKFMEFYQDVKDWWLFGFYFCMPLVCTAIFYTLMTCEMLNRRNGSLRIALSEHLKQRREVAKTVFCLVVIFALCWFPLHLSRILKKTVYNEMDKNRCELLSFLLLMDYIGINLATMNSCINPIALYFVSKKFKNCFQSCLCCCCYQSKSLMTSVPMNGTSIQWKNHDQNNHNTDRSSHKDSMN
Type of experiment: cell membranes, Membrane. Particulars: cho-k1.

Acetylcholinesterase, sequence (P22303 whole entry): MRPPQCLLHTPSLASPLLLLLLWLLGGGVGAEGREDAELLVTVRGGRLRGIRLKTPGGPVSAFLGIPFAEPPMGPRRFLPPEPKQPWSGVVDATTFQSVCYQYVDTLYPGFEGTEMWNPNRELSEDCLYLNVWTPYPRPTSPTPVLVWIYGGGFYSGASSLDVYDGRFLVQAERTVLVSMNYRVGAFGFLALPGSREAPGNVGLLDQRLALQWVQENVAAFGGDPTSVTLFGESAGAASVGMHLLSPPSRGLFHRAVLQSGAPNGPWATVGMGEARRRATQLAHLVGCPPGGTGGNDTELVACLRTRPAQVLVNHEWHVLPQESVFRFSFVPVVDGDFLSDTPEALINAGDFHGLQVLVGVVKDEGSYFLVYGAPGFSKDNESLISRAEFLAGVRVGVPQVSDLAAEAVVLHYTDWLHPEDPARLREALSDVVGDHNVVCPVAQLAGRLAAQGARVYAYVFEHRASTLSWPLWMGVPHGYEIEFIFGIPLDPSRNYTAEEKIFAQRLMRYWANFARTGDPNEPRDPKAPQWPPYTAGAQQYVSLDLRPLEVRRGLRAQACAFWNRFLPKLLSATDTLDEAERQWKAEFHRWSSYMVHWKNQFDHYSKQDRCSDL
Substance-P receptor, sequence (P25103 whole entry): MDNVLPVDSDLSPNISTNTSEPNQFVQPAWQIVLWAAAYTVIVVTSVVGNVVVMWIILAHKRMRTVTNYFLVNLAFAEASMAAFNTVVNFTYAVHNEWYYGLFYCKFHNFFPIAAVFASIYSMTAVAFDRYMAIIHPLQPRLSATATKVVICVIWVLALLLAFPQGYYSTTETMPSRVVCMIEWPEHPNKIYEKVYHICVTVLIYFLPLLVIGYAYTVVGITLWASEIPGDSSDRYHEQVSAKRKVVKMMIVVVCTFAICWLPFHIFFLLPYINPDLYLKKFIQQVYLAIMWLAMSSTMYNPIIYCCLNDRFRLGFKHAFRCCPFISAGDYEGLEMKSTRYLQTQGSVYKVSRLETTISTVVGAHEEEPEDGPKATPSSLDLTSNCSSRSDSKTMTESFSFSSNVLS
Nitric oxide synthase 1, sequence (P29476 whole entry): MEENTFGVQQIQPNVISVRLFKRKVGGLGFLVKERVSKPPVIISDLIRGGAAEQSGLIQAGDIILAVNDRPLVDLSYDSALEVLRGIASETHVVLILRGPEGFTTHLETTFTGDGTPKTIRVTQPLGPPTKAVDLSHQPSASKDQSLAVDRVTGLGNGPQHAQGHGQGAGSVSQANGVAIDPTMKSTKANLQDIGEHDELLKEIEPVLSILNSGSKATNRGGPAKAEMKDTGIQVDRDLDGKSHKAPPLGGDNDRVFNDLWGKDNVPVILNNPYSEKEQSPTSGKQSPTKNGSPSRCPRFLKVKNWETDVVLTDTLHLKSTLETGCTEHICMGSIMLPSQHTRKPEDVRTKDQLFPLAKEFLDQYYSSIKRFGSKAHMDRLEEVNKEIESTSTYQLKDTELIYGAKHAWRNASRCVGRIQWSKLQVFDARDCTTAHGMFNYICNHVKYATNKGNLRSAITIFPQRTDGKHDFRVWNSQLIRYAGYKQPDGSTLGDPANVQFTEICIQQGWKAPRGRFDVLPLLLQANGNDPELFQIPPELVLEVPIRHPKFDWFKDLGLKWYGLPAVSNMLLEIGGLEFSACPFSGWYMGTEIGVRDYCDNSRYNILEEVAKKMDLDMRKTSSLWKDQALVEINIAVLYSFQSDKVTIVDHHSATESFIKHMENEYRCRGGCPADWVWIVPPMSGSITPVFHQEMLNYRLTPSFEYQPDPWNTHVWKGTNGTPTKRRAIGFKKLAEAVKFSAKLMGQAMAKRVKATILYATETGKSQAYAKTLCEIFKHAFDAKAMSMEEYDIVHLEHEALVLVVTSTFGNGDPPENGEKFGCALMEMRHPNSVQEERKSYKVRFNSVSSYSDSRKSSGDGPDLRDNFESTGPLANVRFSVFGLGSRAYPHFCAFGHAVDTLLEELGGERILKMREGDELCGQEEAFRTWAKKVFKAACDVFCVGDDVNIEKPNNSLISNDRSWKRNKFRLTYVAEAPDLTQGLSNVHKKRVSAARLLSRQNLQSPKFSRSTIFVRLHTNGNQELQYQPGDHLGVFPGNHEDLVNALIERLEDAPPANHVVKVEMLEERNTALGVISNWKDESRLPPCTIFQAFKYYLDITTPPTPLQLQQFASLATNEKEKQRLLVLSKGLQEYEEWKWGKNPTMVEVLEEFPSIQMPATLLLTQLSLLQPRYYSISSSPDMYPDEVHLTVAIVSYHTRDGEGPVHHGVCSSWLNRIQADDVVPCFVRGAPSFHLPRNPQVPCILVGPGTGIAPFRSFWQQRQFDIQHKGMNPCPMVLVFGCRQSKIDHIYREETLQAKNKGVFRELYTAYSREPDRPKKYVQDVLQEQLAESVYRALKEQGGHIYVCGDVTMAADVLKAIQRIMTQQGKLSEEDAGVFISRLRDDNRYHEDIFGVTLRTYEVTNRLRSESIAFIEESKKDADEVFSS

Take `C[n+]1ccc(-c2cc[n+](C)cc2)cc1.[Cl-].[Cl-]` [PARAQUAT DICHLORIDE]: the IC50 entry in experiment [1], in experiment [2], in experiment [3], in experiment [4], in experiment [5] and in experiment [6] was “Not Active” in each case.
For `Cc1cc2c(OCC(CNC(C)(C)C)OC(=O)c3ccccc3)cccc2[nH]1` (stereo not given) [BOPINDOLOL], the half-inhibitory concentration (IC50) result in experiment [1], in experiment [2], in experiment [3], in experiment [4], in experiment [5] and in experiment [6] was “Not Active” in each case.
As to `Nc1ccn([C@@H]2O[C@H](CO)[C@@H](O)C2(F)F)c(=O)n1` [GEMCITABINE], the IC50 result in experiment [1], in experiment [2], in experiment [3], in experiment [4], in experiment [5] and in experiment [6] was “Not Active” throughout.
In the case of `Nc1ccn([C@@H]2O[C@H](CO)[C@@H](O)[C@@H]2O)c(=O)n1` [CYTARABINE], the IC50 entry in experiment [1], in experiment [2], in experiment [3], in experiment [4], in experiment [5] and in experiment [6] was “Not Active” throughout.
Turning to GADOPENTETATE DIMEGLUMINE, the IC50 result in experiment [1], in experiment [2], in experiment [3], in experiment [4], in experiment [5] and in experiment [6] was “Not Active” throughout. Besides, the Ki entry in experiment [1], in experiment [2], in experiment [3], in experiment [4], in experiment [5] and in experiment [6] was “Not Active” in each case.
As to `C=CCc1ccc(O)c(OC)c1` [EUGENOL], the IC50 result in experiment [1], in experiment [2], in experiment [3], in experiment [4], in experiment [5] and in experiment [6] was “Not Active” in each case.
Regarding `CCn1cc(C(=O)O)c(=O)c2cnc(N3CCCC3)nc21` [PIROMIDIC ACID], the IC50 entry in experiment [1], in experiment [2], in experiment [3], in experiment [4], in experiment [5] and in experiment [6] was “Not Active” throughout.
As to `CC(C)c1cccc(C(C)C)c1O` [PROPOFOL], the 50% inhibitory concentration (IC50) result in experiment [1], in experiment [2], in experiment [3], in experiment [4], in experiment [5] and in experiment [6] was “Not Active” in each case.
Regarding `COC(=O)Nc1nc2ccc(C(=O)c3cccs3)cc2[nH]1` [NOCODAZOLE], the concentration for half-maximal inhibition (IC50) entry in experiment [1], in experiment [2], in experiment [3], in experiment [4], in experiment [5] and in experiment [6] was “Not Active” throughout.
In the case of AURANOFIN, the half-maximal inhibitory concentration (IC50) was 884 nM in experiment [1] (read-out: IC50); “Not Active” in experiment [2]; “Not Active” in experiment [3]; “Not Active” in experiment [4]; “Not Active” in experiment [5]; “Not Active” in experiment [6]. In addition, the Ki in experiment [1] (read-out: Ki) is 331 nM; in experiment [2] it was “Not Active”; in experiment [3], “Not Active”; in experiment [4], “Not Active”; in experiment [5], “Not Active”; in experiment [6], “Not Active”.
Regarding `Cc1nnc2n1-c1ccc(Cl)cc1C(c1ccccc1)=NC2` [ALPRAZOLAM], the 50% inhibitory concentration (IC50) entry in experiment [1], in experiment [2], in experiment [3], in experiment [4], in experiment [5] and in experiment [6] was “Not Active” in each case.
In the case of `CC(=O)[C@H]1[C@H](C#N)C[C@H]2[C@@H]3CC=C4C[C@@H](O)CC[C@]4(C)[C@H]3CC[C@@]21C` [PREGNENOLONE CARBONITRILE], the IC50 entry in experiment [1], in experiment [2], in experiment [3], in experiment [4], in experiment [5] and in experiment [6] was “Not Active” in each case.
Regarding `C[C@@H]1CC[C@@]2(OC1)O[C@H]1[C@@H](O)[C@H]3[C@@H]4CC[C@H]5C[C@@H](O[C@@H]6O[C@H](CO)[C@H](O[C@@H]7O[C@H](CO)C(O)[C@H](O[C@@H]8OC[C@@H](O)[C@H](O)[C@H]8O)[C@H]7O[C@@H]7O[C@H](CO)[C@H](O)[C@H](O[C@@H]8O[C@H](CO)[C@@H](O)[C@H](O)[C@H]8O)[C@H]7O)[C@H](O)[C@H]6O)[C@H](O)C[C@]5(C)[C@H]4CC[C@]3(C)[C@H]1[C@@H]2C` (stereo not given in full) [DIGITONIN], the concentration for half-maximal inhibition (IC50) entry in experiment [1], in experiment [2], in experiment [3], in experiment [4], in experiment [5] and in experiment [6] was “Not Active” in each case.
